Results taken from patent publication US10167288B2, “Substituted pyrazolylpyrazole derivative and use of same as herbicide” (KYOYU AGRI CO., LTD., priority 2015, dated 2019).

Assays:
Assay type in all cases: in vivo
[1] = system: Amaranthus retroflexus; assay: Weed foliar treatment test (Test Example 3); details: foliar spray at 1.0 to 2.0 leaf stage of Digitaria ciliaris, 3 weeks, 25° C.
Method: (§1) 3. Weed Foliar Treatment Test
(§2) Soil was filled into a 1/6000 are pot followed by seeding with Digitaria ciliaris, Chenopodium album and Amaranthus retroflexus, covering with soil, and cultivating in a glass greenhouse at an average atmospheric temperature of 25° C.
(§3) Wettable powders of Target Compound (I) shown in Table 1 prepared in compliance with the preparation examples were diluted with water to the prescribed amount of chemical and uniformly sprayed onto the weeds using 150 liters of sprayed water per 10 are when Digitaria ciliaris had grown to the 1.0 to 2.0 leaf stage.
(§4) After treating for 3 weeks in a glass greenhouse at an average atmospheric temperature of 25° C., the herbicidal efficacy thereof was investigated.
(§5) Evaluation of herbicidal efficacy was carried out in the same manner as the above-mentioned Test Example 1.

[2] = system: Digitaria ciliaris; assay: Weed foliar treatment test (Test Example 3); details: foliar spray at 1.0 to 2.0 leaf stage of Digitaria ciliaris, 3 weeks, 25° C.
Method: as §1, §2, §3, §4, §5

[3] = system: Chenopodium album; assay: Weed foliar treatment test (Test Example 3); details: foliar spray at 1.0 to 2.0 leaf stage of Digitaria ciliaris, 3 weeks, 25° C.
Method: as §1, §2, §3, §4, §5

[4] = system: Monochoria vaginalis; assay: Paddy herbicidal activity test; details: dropped into paddy water at 3.5 leaf stage of Echinochloa crus-galli, 30 days, 30° C., vs untreated group
Method: (§6) 1. Paddy Herbicidal Activity Test
(§7) Rice paddy soil was filled into a 1/10000 are pot followed by the addition of suitable amounts of water and chemical fertilizer, kneading, seeding with Echinochloa crus-galli, Monochoria vaginalis and Scirpus juncoides and maintaining in an irrigated state at a water depth of 3 cm.
(§8) Wettable powders of Target Compound (I) shown in Table 1 prepared in compliance with the preparation examples were diluted with a suitable amount of water, rice plants in the 2.0 leaf stage were transplanted during 3.5 leaf stage of Echinochloa crus-galli, and treated by dropping in chemical in the prescribed amount per 10 are using a pipette.
(§9) After treating for 30 days in a glass greenhouse at an average atmospheric temperature of 30° C., the herbicidal efficacy thereof was investigated.
(§10) Evaluation of herbicidal efficacy was carried out by comparing growth inhibition rate (%) with an untreated group, while evaluation of phytotoxicity was carried out by comparing growth inhibition rate (%) with the state of a complete eradication group, and were evaluated at 11 levels indicated below.

[5] = system: Scirpus juncoides; assay: Paddy herbicidal activity test; details: dropped into paddy water at 3.5 leaf stage of Echinochloa crus-galli, 30 days, 30° C., vs untreated group
Method: as §6, §7, §8, §9, §10

[6] = system: Echinochloa crus-galli; assay: Paddy herbicidal activity test; details: dropped into paddy water at 3.5 leaf stage of Echinochloa crus-galli, 30 days, 30° C., vs untreated group
Method: as §6, §7, §8, §9, §10

[7] = system: Galinsoga parviflora; assay: Weed foliar treatment test (Test Example 4); details: 10 g a.i./10 a; foliar spray at 4.0 to 5.0 leaf stage of Digitaria ciliaris (plant height 10 cm to 15 cm); 20 days, 25° C.
Method: (§11) 4. Weed Foliar Treatment Test
(§12) Field soil was filled into a 1/4500 are pot followed by seeding with Digitaria ciliaris and Galinsoga parviflora, covering with soil and cultivating in a glass greenhouse at an average atmospheric temperature of 25° C.
as §3, with “100” for “150”, “4.0” for “1.0”, “5.0” for “2.0”, “stage (plant height: 10 cm to 15 cm).” for “stage.”
(§13) After treating for 20 days in a glass greenhouse at an average atmospheric temperature of 25° C., the herbicidal efficacy thereof was investigated.
as §5

[8] = system: Digitaria ciliaris; assay: Weed foliar treatment test (Test Example 4); details: 10 g a.i./10 a; foliar spray at 4.0 to 5.0 leaf stage of Digitaria ciliaris (plant height 10 cm to 15 cm); 20 days, 25° C.
Method: as §11, §12
as §3, with “100” for “150”, “4.0” for “1.0”, “5.0” for “2.0”, “stage (plant height: 10 cm to 15 cm).” for “stage.”
as §13, §5

[9] = system: Amaranthus retroflexus; assay: Farming soil treatment test; details: soil surface spray prior to weed growth, 30 days, 30° C.
Method: (§14) 2. Farming Soil Treatment Test Field soil was filled into a 1/6000 are pot followed by seeding with Digitaria ciliaris Chenopodium album and Amaranthus retroflexus and covering with soil. Wettable powders of compounds of formula (I) shown in Table 1 prepared in compliance with the preparation examples were diluted with water to the prescribed amount of chemical and uniformly sprayed onto each soil surface layer using 100 liters of sprayed water per 10 are prior to weed growth following seeding. After treating for 30 days in a glass greenhouse at an average atmospheric temperature of 30° C., the herbicidal efficacy thereof was investigated. Evaluation of herbicidal efficacy was carried out in the same manner as the above-mentioned Test Example 1.

[10] = system: Digitaria ciliaris; assay: Farming soil treatment test; details: soil surface spray prior to weed growth, 30 days, 30° C.
Method: as §14

[11] = system: Chenopodium album; assay: Farming soil treatment test; details: soil surface spray prior to weed growth, 30 days, 30° C.
Method: as §14

[12] = system: Oryza sativa; assay: Paddy herbicidal activity test, phytotoxicity to transplanted rice; details: rice transplanted in the 2.0 leaf stage, 30 days, 30° C., vs complete eradication group
Method: as §6, §7, §8, §9, §10

CCOC(=O)Nc1c(C#N)cnn1-c1nn2c(c1Cl)CCCC2 [Compound 1, Ethyl N-(1-(3-chloro-4,5,6,7-tetrahydropyrazolo[1,5-a]pyridin-2-yl)-4-cyanopyrazol-5-yl) Carbamate]
herbicidal efficacy, Amaranthus retroflexus ([1]; 5 g a.i./10 a): 10 (100%)
herbicidal efficacy, Amaranthus retroflexus ([1]; 10 g a.i./10 a): 10 (100%)
herbicidal efficacy, Digitaria ciliaris ([2]; 5 g a.i./10 a): 10 (100%)
herbicidal efficacy, Digitaria ciliaris ([2]; 10 g a.i./10 a): 10 (100%)
herbicidal efficacy, Chenopodium album ([3]; 5 g a.i./10 a): 10 (100%)
herbicidal efficacy, Chenopodium album ([3]; 10 g a.i./10 a): 10 (100%)
herbicidal efficacy, Monochoria vaginalis ([4]; 1 g a.i./10 a): 10 (100%)
herbicidal efficacy, Monochoria vaginalis ([4]; 5 g a.i./10 a): 10 (100%)
herbicidal efficacy, Scirpus juncoides ([5]; 1 g a.i./10 a): 10 (100%)
herbicidal efficacy, Scirpus juncoides ([5]; 5 g a.i./10 a): 10 (100%)
herbicidal efficacy, Echinochloa crus-galli ([6]; 1 g a.i./10 a): 10 (100%)
herbicidal efficacy, Echinochloa crus-galli ([6]; 5 g a.i./10 a): 10 (100%)
herbicidal efficacy, Galinsoga parviflora [7]: 10 (100%)
herbicidal efficacy, Digitaria ciliaris [8]: 10 (100%)
herbicidal efficacy, Amaranthus retroflexus ([9]; 5 g a.i./10 a): 10 (100%)
herbicidal efficacy, Amaranthus retroflexus ([9]; 10 g a.i./10 a): 10 (100%)
herbicidal efficacy, Digitaria ciliaris ([10]; 5 g a.i./10 a): 10 (100%)
herbicidal efficacy, Digitaria ciliaris ([10]; 10 g a.i./10 a): 10 (100%)
herbicidal efficacy, Chenopodium album ([11]; 5 g a.i./10 a): 10 (100%)
herbicidal efficacy, Chenopodium album ([11]; 10 g a.i./10 a): 10 (100%)
phytotoxicity, Oryza sativa ([12]; 1 g a.i./10 a): 1 (10% to less than 20%)
phytotoxicity, Oryza sativa ([12]; 5 g a.i./10 a): 1 (10% to less than 20%)

COC(=O)Nc1c(C#N)cnn1-c1nn2c(c1Cl)CCC2 [Compound 3]
herbicidal efficacy, Amaranthus retroflexus ([1]; 5 g a.i./10 a): 10 (100%)
herbicidal efficacy, Amaranthus retroflexus ([1]; 10 g a.i./10 a): 10 (100%)
herbicidal efficacy, Digitaria ciliaris ([2]; 5 g a.i./10 a): 10 (100%)
herbicidal efficacy, Digitaria ciliaris ([2]; 10 g a.i./10 a): 10 (100%)
herbicidal efficacy, Chenopodium album ([3]; 5 g a.i./10 a): 10 (100%)
herbicidal efficacy, Chenopodium album ([3]; 10 g a.i./10 a): 10 (100%)
herbicidal efficacy, Monochoria vaginalis ([4]; 1 g a.i./10 a): 10 (100%)
herbicidal efficacy, Monochoria vaginalis ([4]; 5 g a.i./10 a): 10 (100%)
herbicidal efficacy, Scirpus juncoides ([5]; 1 g a.i./10 a): 9 (90% to less than 100%)
herbicidal efficacy, Scirpus juncoides ([5]; 5 g a.i./10 a): 10 (100%)
herbicidal efficacy, Echinochloa crus-galli ([6]; 1 g a.i./10 a): 10 (100%)
herbicidal efficacy, Echinochloa crus-galli ([6]; 5 g a.i./10 a): 10 (100%)
herbicidal efficacy, Galinsoga parviflora [7]: 10 (100%)
herbicidal efficacy, Digitaria ciliaris [8]: 10 (100%)
herbicidal efficacy, Amaranthus retroflexus ([9]; 5 g a.i./10 a): 10 (100%)
herbicidal efficacy, Amaranthus retroflexus ([9]; 10 g a.i./10 a): 10 (100%)
herbicidal efficacy, Digitaria ciliaris ([10]; 5 g a.i./10 a): 10 (100%)
herbicidal efficacy, Digitaria ciliaris ([10]; 10 g a.i./10 a): 10 (100%)
herbicidal efficacy, Chenopodium album ([11]; 5 g a.i./10 a): 9 (90% to less than 100%)
herbicidal efficacy, Chenopodium album ([11]; 10 g a.i./10 a): 10 (100%)
phytotoxicity, Oryza sativa ([12]; 1 g a.i./10 a): 1 (10% to less than 20%)
phytotoxicity, Oryza sativa ([12]; 5 g a.i./10 a): 1 (10% to less than 20%)

CCCOC(=O)Nc1c(C#N)cnn1-c1nn2c(c1Cl)CCCC2 [Compound 4]
herbicidal efficacy, Galinsoga parviflora [7]: 10 (100%)
herbicidal efficacy, Digitaria ciliaris [8]: 10 (100%)

COC(=O)Nc1c(C#N)cnn1-c1nn2c(c1Cl)CCCC2 [Compound 7]
herbicidal efficacy, Amaranthus retroflexus ([1]; 5 g a.i./10 a): 10 (100%)
herbicidal efficacy, Amaranthus retroflexus ([1]; 10 g a.i./10 a): 10 (100%)
herbicidal efficacy, Digitaria ciliaris ([2]; 5 g a.i./10 a): 10 (100%)
herbicidal efficacy, Digitaria ciliaris ([2]; 10 g a.i./10 a): 10 (100%)
herbicidal efficacy, Chenopodium album ([3]; 5 g a.i./10 a): 10 (100%)
herbicidal efficacy, Chenopodium album ([3]; 10 g a.i./10 a): 10 (100%)
herbicidal efficacy, Monochoria vaginalis ([4]; 1 g a.i./10 a): 10 (100%)
herbicidal efficacy, Monochoria vaginalis ([4]; 5 g a.i./10 a): 10 (100%)
herbicidal efficacy, Scirpus juncoides ([5]; 1 g a.i./10 a): 9 (90% to less than 100%)
herbicidal efficacy, Scirpus juncoides ([5]; 5 g a.i./10 a): 10 (100%)
herbicidal efficacy, Echinochloa crus-galli ([6]; 1 g a.i./10 a): 10 (100%)
herbicidal efficacy, Echinochloa crus-galli ([6]; 5 g a.i./10 a): 10 (100%)
herbicidal efficacy, Galinsoga parviflora [7]: 10 (100%)
herbicidal efficacy, Digitaria ciliaris [8]: 10 (100%)
herbicidal efficacy, Amaranthus retroflexus ([9]; 5 g a.i./10 a): 10 (100%)
herbicidal efficacy, Amaranthus retroflexus ([9]; 10 g a.i./10 a): 10 (100%)
herbicidal efficacy, Digitaria ciliaris ([10]; 5 g a.i./10 a): 10 (100%)
herbicidal efficacy, Digitaria ciliaris ([10]; 10 g a.i./10 a): 10 (100%)
herbicidal efficacy, Chenopodium album ([11]; 5 g a.i./10 a): 9 (90% to less than 100%)
herbicidal efficacy, Chenopodium album ([11]; 10 g a.i./10 a): 10 (100%)
phytotoxicity, Oryza sativa ([12]; 1 g a.i./10 a): 1 (10% to less than 20%)
phytotoxicity, Oryza sativa ([12]; 5 g a.i./10 a): 1 (10% to less than 20%)

CC(C)COC(=O)Nc1c(C#N)cnn1-c1nn2c(c1Cl)CCCC2 [Compound 10]
herbicidal efficacy, Galinsoga parviflora [7]: 10 (100%)
herbicidal efficacy, Digitaria ciliaris [8]: 10 (100%)

CCSC(=O)Nc1c(C#N)cnn1-c1nn2c(c1Cl)CCCC2 [Compound 11]
herbicidal efficacy, Galinsoga parviflora [7]: 10 (100%)
herbicidal efficacy, Digitaria ciliaris [8]: 10 (100%)

CCOC(=O)Nc1c([N+](=O)[O-])cnn1-c1nn2c(c1Cl)CCCC2 [Control agent 2.28, reference compound]
herbicidal efficacy, Amaranthus retroflexus ([1]; 5 g a.i./10 a): 3 (30% to less than 40%)
herbicidal efficacy, Amaranthus retroflexus ([1]; 10 g a.i./10 a): 6 (60% to less than 70%)
herbicidal efficacy, Digitaria ciliaris ([2]; 5 g a.i./10 a): 2 (20% to less than 30%)
herbicidal efficacy, Digitaria ciliaris ([2]; 10 g a.i./10 a): 4 (40% to less than 50%)
herbicidal efficacy, Chenopodium album ([3]; 5 g a.i./10 a): 6 (60% to less than 70%)
herbicidal efficacy, Chenopodium album ([3]; 10 g a.i./10 a): 7 (70% to less than 80%)
herbicidal efficacy, Monochoria vaginalis ([4]; 1 g a.i./10 a): 3 (30% to less than 40%)
herbicidal efficacy, Monochoria vaginalis ([4]; 5 g a.i./10 a): 4 (40% to less than 50%)
herbicidal efficacy, Scirpus juncoides ([5]; 1 g a.i./10 a): 1 (10% to less than 20%)
herbicidal efficacy, Scirpus juncoides ([5]; 5 g a.i./10 a): 2 (20% to less than 30%)
herbicidal efficacy, Echinochloa crus-galli ([6]; 1 g a.i./10 a): 1 (10% to less than 20%)
herbicidal efficacy, Echinochloa crus-galli ([6]; 5 g a.i./10 a): 2 (20% to less than 30%)
herbicidal efficacy, Galinsoga parviflora [7]: 2 (20% to less than 30%)
herbicidal efficacy, Digitaria ciliaris [8]: 1 (10% to less than 20%)
herbicidal efficacy, Amaranthus retroflexus ([9]; 5 g a.i./10 a): 3 (30% to less than 40%)
herbicidal efficacy, Amaranthus retroflexus ([9]; 10 g a.i./10 a): 5 (50% to less than 60%)
herbicidal efficacy, Digitaria ciliaris ([10]; 5 g a.i./10 a): 1 (10% to less than 20%)
herbicidal efficacy, Digitaria ciliaris ([10]; 10 g a.i./10 a): 2 (20% to less than 30%)
herbicidal efficacy, Chenopodium album ([11]; 5 g a.i./10 a): 4 (40% to less than 50%)
herbicidal efficacy, Chenopodium album ([11]; 10 g a.i./10 a): 5 (50% to less than 60%)
phytotoxicity, Oryza sativa ([12]; 1 g a.i./10 a): 0 (0% to less than 10% (growth inhibition rate))
phytotoxicity, Oryza sativa ([12]; 5 g a.i./10 a): 1 (10% to less than 20%)
